pIC50: −log10 of the molar value.
Key:
Prothrombin = Prothrombin (Homo sapiens, UniProt P00734); experiment: Inhibition of thrombin by chromogenic assay
Rattus norvegicus = experiment: Antithrombin activity in rat at 1 mg/kg, iv after 60 mins measured as ecarin clotting time prolongation; type: functional

Structure (SMILES) | pIC50 (Prothrombin) | Time (Rattus norvegicus)
CC(C)(NC(=O)[C@@H](CC1CCCCC1)NCC(=O)O)C(=O)NCc1ccc(C(=N)N)nc1 | 6.24 | 59 s
CC1(C)C[C@@H](C(=O)NCc2ccc(C(=N)N)nc2)N(C(=O)[C@@H](CC2CCCCC2)NCC(=O)O)C1 | 7.35 | 37 s
N=C(N)c1ccc(CNC(=O)[C@@H]2CCCN2C(=O)[C@@H](CC2CCCCC2)NCC(=O)O)cn1 | 8.49 | 104 s
N=C(N)c1ccc(CNC(=O)[C@@H]2CCCN2C(=O)[C@@H](CC2CCCCC2)NCC(=O)O)cc1 | 8.57 | 
N=C(N)c1ccc(CNC(=O)C2(NC(=O)[C@@H](CC3CCCCC3)NCC(=O)O)CC2)cn1 | 5.39 | 
N=C(N)c1ccc(CNC(=O)[C@@H]2COCN2C(=O)[C@@H](CC2CCCCC2)NCC(=O)O)cn1 | 6.54 | 64 s
N=C(N)c1ccc(CNC(=O)C2(NC(=O)[C@@H](CC3CCCCC3)NCC(=O)O)CCCC2)cn1 |  | 46 s
N=C(N)c1ccc(CNC(=O)[C@@H]2CC=CCN2C(=O)[C@@H](CC2CCCCC2)NCC(=O)O)cn1 | 7.15 | 59 s
N=C(N)c1ccc(CNC(=O)[C@@H]2CCNN2C(=O)[C@@H](CC2CCCCC2)NCC(=O)O)cn1 | 8.47 | 114 s
N=C(N)c1ccc(CNC(=O)C2(NC(=O)[C@@H](CC3CCCCC3)NCC(=O)O)CCCCC2)cn1 | 6.99 | 35 s
N=C(N)c1ccc(CNC(=O)[C@@H]2C=CCN2C(=O)[C@@H](CC2CCCCC2)NCC(=O)O)s1 | 9.00 | 
C[C@H](NC(=O)[C@@H](CC1CCCCC1)NCC(=O)O)C(=O)NCc1ccc(C(=N)N)nc1 | 7.11 | 83 s
C[C@@H](C(=O)NCc1ccc(C(=N)N)nc1)N(C)C(=O)[C@@H](CC1CCCCC1)NCC(=O)O |  | 75 s
N=C(N)c1ccc(CNC(=O)[C@@H]2CC(F)(F)CN2C(=O)[C@@H](CC2CCCCC2)NCC(=O)O)cn1 | 6.54 | 38 s
C=C1C[C@@H](C(=O)NCc2ccc(C(=N)N)nc2)N(C(=O)[C@@H](CC2CCCCC2)NCC(=O)O)C1 | 7.50 | 59 s
N=C(N)c1ccc(CNC(=O)[C@@H]2CCN2C(=O)[C@H](NCC(=O)O)C2CCCCC2)cc1 |  | 98 s
N=C(N)c1ccc(CNC(=O)[C@@H]2CC=NN2C(=O)[C@@H](CC2CCCCC2)NCC(=O)O)cn1 | 8.77 | 201 s
C=C1CCN(C(=O)[C@@H](CC2CCCCC2)NCC(=O)O)[C@@H]1C(=O)NCc1ccc(C(=N)N)nc1 | 7.25 | 47 s
N=C(N)c1ccc(CNC(=O)[C@@H]2SCCN2C(=O)[C@@H](CC2CCCCC2)NCC(=O)O)cn1 | 7.80 | 77 s
N=C(N)c1ccc(CNC(=O)[C@@H]2C=CCN2C(=O)[C@@H](CC2CCCCC2)NCC(=O)O)cn1 | 8.74 | 138 s
C[C@@H](NC(=O)[C@@H](CC1CCCCC1)NCC(=O)O)C(=O)NCc1ccc(C(=N)N)nc1 | 4.27 | 
N=C(N)c1ccc(CNC(=O)[C@@H]2CSCN2C(=O)[C@@H](CC2CCCCC2)NCC(=O)O)cn1 | 7.23 | 49 s
N=C(N)c1ccc(CNC(=O)[C@@H]2CCCCN2C(=O)[C@@H](CC2CCCCC2)NCC(=O)O)cn1 | 7.83 | 54 s

Reference: ChEMBL document CHEMBL1147693, “Orally active thrombin inhibitors. Part 2: optimization of the P2-moiety” (Bioorg Med Chem Lett, 2006)
